Test results from US7399888B2, “Anticonvulsant compounds” (priority 2006, dated 2008).

Legend:
[1] = system: NMRI mice; test: Maximal electroshock (MES) induced seizure model; assay type: in vivo; conditions: tested in mixture form
Description: (§1) Male NMRI albino mice weighing 19-22 g were housed in an environmentally regulated room on a 12 h light: 12 h dark cycle with 25±1° C. and had free access to food and water. The use of animals in experimental protocol was approved by the research committee of the ICCS, University of Karachi, in accordance with the international guidelines for the care and use of laboratory animals. The anticonvulsant activity of compounds in mixture form was determined after intraperitoneal administration to NMRI mice weighing 19-22 g. Maximal electroshock (MES) and subcutaneous pentylenetetrazole (scPTZ) induced seizure models were used to test the anticonvulsant properties of compounds. […] Protection against HLTE in MEST predicts the ability of a testing material to prevent the spread of seizures discharge from the epileptic focus in brain in additions effectiveness in MEST correlates with efficacy in suppressing the generalized tonic-clonic and partial seizures. […] Anticonvulsant activity in the scPTZ test identifies compounds that can raise seizure threshold in the brain.

[2] = system: NMRI mice; test: subcutaneous pentylenetetrazole (scPTZ) induced seizure model; assay type: in vivo; conditions: tested in mixture form
Description: as §1

| Compound | prevention of convulsions in electrically-induced seizure model [1] | prevention of convulsions in chemically-induced seizure model [2] |
| --- | --- | --- |
| CC(=O)/C=C1/C=C(C)CC(C)(C)C1 [Isoxylitone A, 2-Propanone 1-(3,5,5-trimethyl-2-cyclohexen-1-ylidene) (1E)] | able to prevent convulsions | able to prevent convulsions |
| CC(=O)/C=C1\C=C(C)CC(C)(C)C1 [Isoxylitone B, 2-Propanone, 1-(3,5,5-trimethyl-2-cyclohexen-1-ylidene)-, (1Z)] | able to prevent convulsions | able to prevent convulsions |
